Experiment [1] is described as follows: Formalin-evoked nocifensive (rubbing) behavior, whisker-pad injection, in vivo pain model in mice. Set-up: species or system mouse. The settings on record: for formalin-induced nocifensive behavior, time course: FIG. 21D; for formalin-induced nocifensive behavior, quantitation, in particular second phase: compounds pre-injected at 0.5 mM/10 μL into whiskerpad 15 min before 4% formalin. The procedure:
Compounds were tested for their effect in reducing pain using an in vivo pain model in mice. For mouse formalin-evoked irritant behavior measurements, mice were well-fed, well-rested, and tested at the same time of day, at the same time-point of their circadian rhythm. They were allowed to acclimate to a plexiglas chamber for at least 30 min before testing, and received 10 μL subcutaneous injection of 4% of formalin (diluted from an aqueous solution of commercial 37% formaldehyde with normal saline (NS)) through a 30-gauge needle into the right whiskerpad, as further detailed in Luccarini et al. (J. Pain, 2006, 7, 908-914). Normal saline was used as control injection. After injection, mice were immediately placed back into the chamber and the rubbing behavior was recorded by a private consumer-type video-camera for a 45 min observation period. The recording time was divided into 9 blocks of 5 min, and a nociceptive score was determined per block by measuring the time that the animals spent rubbing the injected area predominantly with the ipsilateral fore-paw and rarely with hind-paw. This rubbing behavior with fore-paw is evoked by pain, which is distinct from itch behavior. Behavioral analysis was conducted by observers blinded to treatment.
To investigate the effects of the specific compounds GSK205, 16-8, and 16-8/18hy on formalin-induced nociceptive behavior, mice received a single subcutaneous injection of the compounds into the whiskerpad (10 μL, dissolved in 4% DMSO) 15 min before formalin injection. Control animals received the same volume of NS, 4% DMSO.

Experiment [2] is described as follows: UVB-overexposure evoked nocifensive behavior (mouse model for sunburn), topical treatment. The experiment is classed as in vivo. The following applies: 0.5 mM in 40 μL, n=4/group. The procedure:
Compounds were tested for their effect on nocifensive behavior (response to pain) following UVB overexposure. Behavioral tests were performed to evaluate the decrease in withdrawal thresholds in response to mechanical von Frey hair or thermal stimuli applied to hind paws. The Von-Frey apparatus (Ugo Basile) applied a mechanical stimulus with a flexible steel wire from underneath the hind paw. The force leading to withdrawal was determined. For the thermal stimuli test, paws were stimulated with heat from underneath applied by an infrared beam (Hargreave's test apparatus; Ugo Basile), and withdrawal latencies were recorded. The withdrawal thresholds were ascertained before and after UV exposure. Mice were exposed to UVB 3-5 days after the last application of tam/oil, using a Bio-Rad Gel Doc 2000 UV transilluminator (302 nm) for 5 min with an exposure of 600 mJ/cm^2. This represents 5-10 times the minimal erythema-inducing dose, in keeping with the rationale of inducing sunburn and studying sunburn-evoked pain.

The target of experiment [3] is T1, human TRPA1 (Homo sapiens, UniProt O75762).
T1 construct: expressed in transfected cells; host or cells: N2a cells, pcDNA3.1 plasmid, co-transfected with an eGFP plasmid
Description: Ca2+ transient in N2a cells transfected with human TRPA1. It counts as cell-based. The procedure:
Compounds were tested for their effect on TRPA1. N2a permanent cells were transfected with human TRPA1 cDNA, using a pcDNA3.1 expression plasmid. They were co-transfected with eGFP-expressing plasmid, or, for control, with eGFP plasmid only.

For experiment [4], the target named is TRPV4 (Homo sapiens, UniProt Q9HBA0). The experiment is described as follows: TRPV4-mediated calcium influx in N2a cells with targeted expression of human TRPV4. The following applies: 2.5 μM inhibitor, pre-incubation 10 min; TRPV4 activated with 10 nM GSK101. Set-up: expressed in transfected cells; host or cells: N2a cells. It counts as cell-based. The procedure: Compounds (GSK205, 16-12, 16-13, 16-14, 16-18, 16-8, and 16-8/18hy) were tested for their effect on TRPV4-mediated calcium influx in N2a cultured cells with targeted expression of human TRPV4. Ca2+ imaging was performed according to Li et al. (Environ. Health Perspect. 2011, 119, 784-93) and Moore et al. (Proc. Natl. Acad. Sci. U.S.A. 2013, 110, E3225-E3234). Briefly, Ca2+ imaging of primary mouse epidermal keratinocytes (1° MK) in response to chemical activation of TRPV4 was conducted after loading with 2 μM fura2-AM, following a ratiometric Ca2+-imaging protocol with 340/380 nm blue light for dual excitation. Ratios of emissions were acquired at 0.5 Hz. ΔR/R0 was determined as the fraction of the increase of a given ratio over baseline ratio, divided by baseline ratio. For stimulation of cells with UVB, where fura-2 was not suitable because of the proximity of stimulation with 340/380 nm vs. 295 nm, 2 μM fluo4-AM was used instead. Ca2+ imaging was carried out at 488 nm excitation, acquisition of emissions at 0.5 Hz, expressed as ΔF/F0. TRPV4 was activated with 10 nM GSK101, a specific activator, which had no effect on RFP-transfected cells. Each of the […] compounds were added to a concentration of 2.5 μM, and its effect was observed.

Experiment [5] has as its system primary mouse keratinocytes (1° MK). Description: UVB-evoked Ca++ signaling in primary mouse keratinocytes (fluo-4 imaging). The experiment is classed as cell-based. How it is done:
Ca++ imaging of 1° MK was conducted following routine procedures. For UVB stimulation, a customized device was built. The system comprised a printed circuit board for electrical interconnects and mechanical support and an ultraviolet light-emitting diode (UV LED).
The operating wavelength was 295 nm (FIG. 2A), with a full-width half-max of 12 nm. The optical power was 500 mW. The focal point was aimed at the plane of the upper surface of the quartz coverslip, which was used to minimize UV absorption along the optical path towards the cells (FIG. 2A-FIG. 2C). The optical intensity at the focal point was estimated to be 150 mW/mm^2.
Ca++ imaging of mouse 1° MK in response to chemical activation of TRPV4 was conducted after loading with 2 μM fura2-AM, following a ratiometric Ca2+ imaging protocol with 340/380 nm […] for dual excitation. Ratios of emissions were acquired at 0.5 Hz. ΔR/R0 was determined as the fraction of the increase of a given ratio over baseline ratio, divided by baseline ratio. For stimulation of cells with UVB, where fura-2 was not suitable because of the proximity of stimulation with 340/380 nm and 295 nm, 2 μM fluo4-AM was used instead. Ca++ imaging was carried out at 488 nm excitation, acquisition of emissions at 0.5 Hz, expressed as ΔF/F0. In the custom-built UV optical system, UV LEDs were capped with a ball lens, a transparent optical window in the shape of a hemispherical lens (FIG. 2B). The LED output optical beam focused at 15-20 mm from the lens, with a spot diameter of approximately 1.5-2.0 mm (FIG. 2C). […] The thermal equilibration stage was set for physiological temperature.

“Also recorded” adds a separate entry of the source.

T1 sequence (O75762 whole entry): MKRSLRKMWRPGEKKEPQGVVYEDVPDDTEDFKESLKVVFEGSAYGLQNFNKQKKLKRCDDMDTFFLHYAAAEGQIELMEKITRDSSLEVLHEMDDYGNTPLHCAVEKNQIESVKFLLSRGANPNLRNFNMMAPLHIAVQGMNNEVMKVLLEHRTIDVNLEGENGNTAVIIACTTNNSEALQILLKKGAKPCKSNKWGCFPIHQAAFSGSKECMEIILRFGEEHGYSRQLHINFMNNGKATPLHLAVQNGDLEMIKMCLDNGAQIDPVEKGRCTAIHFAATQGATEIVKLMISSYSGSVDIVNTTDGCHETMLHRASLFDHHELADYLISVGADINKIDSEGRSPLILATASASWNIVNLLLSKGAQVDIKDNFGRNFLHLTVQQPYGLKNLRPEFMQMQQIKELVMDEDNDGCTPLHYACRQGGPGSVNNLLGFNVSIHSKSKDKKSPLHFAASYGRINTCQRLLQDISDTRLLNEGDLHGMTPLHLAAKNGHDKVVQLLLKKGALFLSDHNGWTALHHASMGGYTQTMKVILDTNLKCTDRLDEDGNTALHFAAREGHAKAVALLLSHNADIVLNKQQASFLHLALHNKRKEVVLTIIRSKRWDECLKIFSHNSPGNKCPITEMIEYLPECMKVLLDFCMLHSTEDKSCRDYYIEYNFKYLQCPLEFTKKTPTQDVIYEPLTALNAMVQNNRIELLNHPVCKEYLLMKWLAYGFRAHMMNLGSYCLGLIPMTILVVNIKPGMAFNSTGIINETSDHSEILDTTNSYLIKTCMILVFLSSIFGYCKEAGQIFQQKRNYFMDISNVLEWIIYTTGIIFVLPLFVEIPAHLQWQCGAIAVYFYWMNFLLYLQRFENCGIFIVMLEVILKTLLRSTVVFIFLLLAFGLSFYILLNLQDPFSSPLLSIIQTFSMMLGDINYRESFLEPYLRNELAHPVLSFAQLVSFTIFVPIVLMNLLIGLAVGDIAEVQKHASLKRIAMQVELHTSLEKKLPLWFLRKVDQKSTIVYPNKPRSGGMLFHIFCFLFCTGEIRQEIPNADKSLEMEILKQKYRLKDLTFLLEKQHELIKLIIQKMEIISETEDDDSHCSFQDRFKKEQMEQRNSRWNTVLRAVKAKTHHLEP
Chain of TRPV4 (Q9HBA0 whole entry): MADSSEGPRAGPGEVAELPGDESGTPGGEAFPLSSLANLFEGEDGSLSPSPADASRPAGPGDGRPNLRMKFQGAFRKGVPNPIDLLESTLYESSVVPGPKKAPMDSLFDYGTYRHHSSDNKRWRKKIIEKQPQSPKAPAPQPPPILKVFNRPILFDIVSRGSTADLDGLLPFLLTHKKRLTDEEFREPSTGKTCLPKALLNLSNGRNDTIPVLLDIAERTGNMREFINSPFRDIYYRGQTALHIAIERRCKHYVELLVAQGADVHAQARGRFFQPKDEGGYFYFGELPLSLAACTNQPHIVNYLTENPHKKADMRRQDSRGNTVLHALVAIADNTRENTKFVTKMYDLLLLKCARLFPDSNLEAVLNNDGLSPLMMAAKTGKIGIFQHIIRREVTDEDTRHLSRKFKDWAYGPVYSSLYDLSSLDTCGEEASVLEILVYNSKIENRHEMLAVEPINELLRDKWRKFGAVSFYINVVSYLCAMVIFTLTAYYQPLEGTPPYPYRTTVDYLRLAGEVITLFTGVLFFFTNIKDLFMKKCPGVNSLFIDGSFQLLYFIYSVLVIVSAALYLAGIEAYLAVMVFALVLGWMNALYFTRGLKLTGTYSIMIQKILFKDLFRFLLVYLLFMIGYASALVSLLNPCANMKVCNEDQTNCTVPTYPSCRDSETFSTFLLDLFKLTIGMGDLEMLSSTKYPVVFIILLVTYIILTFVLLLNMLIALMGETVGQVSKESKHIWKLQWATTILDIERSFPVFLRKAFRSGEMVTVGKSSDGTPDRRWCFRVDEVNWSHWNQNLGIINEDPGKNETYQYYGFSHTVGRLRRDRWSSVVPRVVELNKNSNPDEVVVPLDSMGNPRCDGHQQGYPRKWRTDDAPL

Take `CN(CCc1ccc(Nc2nc(-c3ccccc3)cs2)cc1)Cc1ccccc1` [Compound 16-8]: the “formalin-induced nocifensive behavior at the 45-min time-point” value in experiment [1] (0.5 mM/10 μL, 45-min time-point) was “reduction to control levels”. In experiment [1] (0.5 mM/10 μL), the “formalin-induced nocifensive behavior, time course” value is listed as “significantly attenuated nocifensive behavior”. The “formalin-induced nocifensive behavior, quantitation, in particular second phase” value in experiment [1] is given as “significant attenuation of nocifensive behavior”. For the same molecule, the “UVB-overexposure evoked nocifensive behavior (response to pain)” value in experiment [2] is listed as “especially effective in reducing the response to pain”. In addition, in experiment [3] (5 μM compound), the “inhibitory activity against human TRPA1” value is “inhibitory activity”. In addition, the “inhibition of TRPV4-mediated calcium influx (peak calcium concentration in the cells)” value in experiment [4] is “most potent”.

In the case of `CN(CCc1ccc(Nc2nc(-c3cccnc3)cs2)cc1)Cc1ccccc1` [GSK205], the “formalin-induced nocifensive behavior, time course” value in experiment [1] (0.5 mM/10 μL) is “not different from control”. The “formalin-induced nocifensive behavior, quantitation, in particular second phase” value in experiment [1] was “lack of effect”. Besides, in experiment [2], the “UVB-overexposure evoked nocifensive behavior (response to pain)” value is listed as “as effective as vehicle”. Further, the “inhibition of TRPA1 activity” value in experiment [3] (doses below or equaling 25 μM) is “did not inhibit TRPA1 activity”. Further, the “UVB-evoked Ca++ signaling (ΔF/F0)” value in experiment [5] (GSK205 20 μM) was “very similar response to that of Trpv4−/− 1° MK; also recorded: strongly down-regulated; also recorded: significant attenuation”. Moreover, the “ET1-augmented, UVB-induced Ca++ transients” value in experiment [5] (UVB and ET1 co-exposure) is “greatly diminished”. For the same molecule, in experiment [4], the “inhibition of TRPV4-mediated calcium influx (peak calcium concentration in the cells)” value was “very low potency”.
